Measurements from ChEMBL document CHEMBL4665783, “N-terminal modified cyclopeptidic mimetics of Apollo as inhibitors of TRF2” (Bioorg Med Chem Lett, 2020).

Each molecule was assayed against T1, Telomeric repeat-binding factor 2 (Homo sapiens, UniProt Q15554) (assay: Binding affinity to TRFH domain of TRF2 (residues 42 to 245) (unknown origin) by FP based assay).
T1 sequence (Q15554 whole entry): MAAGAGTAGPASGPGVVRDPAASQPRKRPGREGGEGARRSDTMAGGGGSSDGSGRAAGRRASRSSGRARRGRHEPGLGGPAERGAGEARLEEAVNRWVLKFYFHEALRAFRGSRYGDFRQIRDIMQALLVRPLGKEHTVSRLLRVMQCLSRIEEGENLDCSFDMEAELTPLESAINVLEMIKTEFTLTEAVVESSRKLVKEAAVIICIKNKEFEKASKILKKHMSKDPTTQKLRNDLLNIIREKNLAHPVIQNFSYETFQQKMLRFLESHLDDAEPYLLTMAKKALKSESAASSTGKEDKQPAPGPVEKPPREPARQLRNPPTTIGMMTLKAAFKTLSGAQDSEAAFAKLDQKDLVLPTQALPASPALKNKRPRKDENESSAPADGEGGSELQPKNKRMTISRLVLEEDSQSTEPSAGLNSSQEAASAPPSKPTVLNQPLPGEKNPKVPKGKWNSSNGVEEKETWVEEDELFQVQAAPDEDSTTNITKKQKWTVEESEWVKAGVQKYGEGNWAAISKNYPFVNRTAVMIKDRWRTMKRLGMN

Ki [µM]	Molecule
11	CC(C)C[C@@H]1NC(=O)[C@@H](NC(=O)c2cc(OCc3ccccc3)cc(OC(C)C)c2)COCCCCOC[C@@H](C(=O)N(C)C)NC(=O)[C@@H]2CCCN2C(=O)[C@H](C)NC1=O
6.9	CC(C)C[C@@H]1NC(=O)[C@@H](NC(=O)c2cc(OCc3ccccc3)cc(OCC3CCCC3)c2)COCCCCOC[C@@H](C(=O)N(C)C)NC(=O)[C@@H]2CCCN2C(=O)[C@H](C)NC1=O
4.2	CC(C)C[C@@H]1NC(=O)[C@@H](NC(=O)c2cc(OCc3ccccc3)cc(OCC3CC3)c2)COCCCCOC[C@@H](C(=O)N(C)C)NC(=O)[C@@H]2CCCN2C(=O)[C@H](C)NC1=O
5.1	CC(C)C[C@@H]1NC(=O)[C@@H](NC(=O)c2cc(OCc3ccccc3)cc(OC3CCCC3)c2)COCCCCOC[C@@H](C(=O)N(C)C)NC(=O)[C@@H]2CCCN2C(=O)[C@H](C)NC1=O
35	CC(C)C[C@@H]1NC(=O)[C@@H](NC(=O)c2cc(OCCN)cc(OCc3ccccc3)c2)COCCCCOC[C@@H](C(=O)N(C)C)NC(=O)[C@@H]2CCCN2C(=O)[C@H](C)NC1=O
4.9	CC(C)C[C@@H]1NC(=O)[C@@H](NC(=O)c2cc(OCc3ccccc3)cc(OC3CCC3)c2)COCCCCOC[C@@H](C(=O)N(C)C)NC(=O)[C@@H]2CCCN2C(=O)[C@H](C)NC1=O
4.3	CC(C)C[C@@H]1NC(=O)[C@@H](NC(=O)c2cc(OCc3ccccc3)cc(OCC3CCC3)c2)COCCCCOC[C@@H](C(=O)N(C)C)NC(=O)[C@@H]2CCCN2C(=O)[C@H](C)NC1=O
0.33	Ac-LALKYLLTPV-NH2

What follows are molecules tested against T1, Telomeric repeat-binding factor 2 (assay: Binding affinity to biotinylated TRF2 (unknown origin) by biolayer interferometry assay).

Kd [µM]	Molecule
2.5	CC(C)C[C@@H]1NC(=O)[C@@H](NC(=O)c2cc(OCc3ccccc3)cc(OCC3CC3)c2)COCCCCOC[C@@H](C(=O)N(C)C)NC(=O)[C@@H]2CCCN2C(=O)[C@H](C)NC1=O
